Data: patent US8921267B2, “Safening 6-(trisubstituted phenyl)-4-amino-2-pyridinecarboxylate herbicide injury on cereal crops” (Dow AgroSciences LLC, priority 2008, dated 2014)

What was measured:
Assay type in all cases: in vivo
[1] = system: purple deadnettle (Lamium purpureum L; LAMPU); experiment: Postemergence herbicidal activity, greenhouse, visual injury: purple deadnettle; parameters: key: visual injury, 0–100%: 0 = no injury, 100 = complete kill
Protocol: (§1) Evaluation of Postemergence Herbicidal Safening in Cereal Crops
(§2) Seeds of the desired test plant species were planted in Sun Gro MetroMix® 306 planting mixture, which typically has a pH of 6.0 to 6.8 and an organic matter content of about 30 percent, in plastic pots with a surface area of 103.2 square centimeters (cm^2). When required to ensure good germination and healthy plants, a fungicide treatment and/or other chemical or physical treatment was applied. The plants were grown for 7-36 days (d) in a greenhouse with an approximate 14-hour (h) photoperiod which was maintained at about 18° C. during the day and 17° C. during the night. Nutrients and water were added on a regular basis and supplemental lighting was provided with overhead metal halide 1000-Watt lamps as necessary. The plants were employed for testing when they reached the second or third true leaf stage.
(§3) Weighed amounts of esters (methyl) or salts (TEA [triethylammonium], K [potassium]) of 4-amino-3-chloro-6-(4-chloro-2-fluoro-3-methoxyphenyl)pyridine-2-carboxylic acid (Compound 1) were dissolved in a volume of 97:3 volume/volume (v/v) acetone/dimethylsulfoxide (DMSO) to obtain stock solutions. […] The concentrated stock solutions were diluted with an aqueous mixture of 1.5% v/v of Agri-dex crop oil concentrate to provide the appropriate application rates. Compound requirements are based upon a 12 mL application volume at a rate of 187 liters per hectare (L/ha). Stocks solutions of the safeners were prepared following the same procedure. Spray solutions of the safeners and experimental compound mixtures were prepared by adding the stock solutions to the appropriate amount of dilution solution to form a 12 mL spray solution with active ingredients in two-way combinations. Formulated compounds were applied to the plant material with an overhead Mandel track sprayer equipped with 8002E nozzles calibrated to deliver 187 L/ha over an application area of 0.503 square meters (m^2) at a spray height of 18 inches (43 centimeters (cm)) above average plant canopy. Control plants were sprayed in the same manner with the solvent blank.
(§4) The treated plants and control plants were placed in a greenhouse as described above and watered by sub-irrigation to prevent wash-off of the test compounds. After 20-22 d, the condition of the test plants as compared with that of the control plants was determined visually and scored on a scale of 0 to 100 percent where 0 corresponds to no injury and 100 corresponds to complete kill.
(§5) Colby's equation was used to determine the herbicidal effects expected from the mixtures (Colby, S. R. Calculation of the synergistic and antagonistic response of herbicide combinations. Weeds 1967, 15, 20-22.).
(§6) The following equation was used to calculate the expected activity of mixtures containing two active ingredients, A and B: Expected=A+B−(A×B/100)
(§7) A=observed efficacy of active ingredient A at the same concentration as used in the mixture.
(§8) B=observed efficacy of active ingredient B at the same concentration as used in the mixture.

[2] = system: corn poppy (Papaver rhoeas L; PAPRH); experiment: Postemergence herbicidal activity, greenhouse, visual injury: corn poppy; details: for PAPRH Ob: applied alone
Protocol: as §1, §2, §3, §4, §5, §6, §7, §8

[3] = system: bird's-eye speedwell (Veronica persica L; VERPE); experiment: Postemergence herbicidal activity, greenhouse, visual injury: bird's-eye speedwell; parameters: key: visual injury, 0–100%: 0 = no injury, 100 = complete kill; details: applied alone
Protocol: as §1, §2, §3, §4, §5, §6, §7, §8

[4] = system: chickweed (Stellaria media L; STEME); experiment: Postemergence herbicidal activity, greenhouse, visual injury: chickweed; parameters: key: visual injury, 0–100%: 0 = no injury, 100 = complete kill; details: applied alone
Protocol: as §1, §2, §3, §4, §5, §6, §7, §8

[5] = system: wild pansy (Viola tricolor L; VIOTR); experiment: Postemergence herbicidal activity, greenhouse, visual injury: wild pansy; parameters: key: visual injury, 0–100%: 0 = no injury, 100 = complete kill; details: applied alone
Protocol: as §1, §2, §3, §4, §5, §6, §7, §8

[6] = system: cleavers (Galium aparine L; GALAP); experiment: Postemergence herbicidal activity, greenhouse, visual injury: cleavers; parameters: key: visual injury, 0–100%: 0 = no injury, 100 = complete kill; details: applied alone
Protocol: as §1, §2, §3, §4, §5, §6, §7, §8

[7] = system: wild buckwheat (Polygonum convolvulus L; POLCO); experiment: Postemergence herbicidal activity, greenhouse, visual injury: wild buckwheat; details: applied alone
Protocol: as §1, §2, §3, §4, §5, §6, §7, §8

[8] = system: barley (Hordeum vulgare L; HORVS); experiment: Postemergence herbicidal safening, greenhouse, visual injury: barley; details: applied alone
Protocol: as §1, §2, §3, §4, §5, §6, §7, §8

[9] = system: wheat (Triticum aestivum L; TRZAS); experiment: Postemergence herbicidal safening, greenhouse, visual injury: wheat; details: applied alone
Protocol: as §1, §2, §3, §4, §5, §6, §7, §8

[10] = system: Russian thistle (Salsola iberica L; SASKR); experiment: Postemergence herbicidal activity, greenhouse, visual injury: Russian thistle; parameters: key: visual injury, 0–100%: 0 = no injury, 100 = complete kill; details: applied alone
Protocol: as §1, §2, §3, §4, §5, §6, §7, §8

For `Cc1ccc(NC(=O)NC(C)(C)c2ccccc2)cc1` [Daimuron], the “LAMPU Ob (Observed values)” value ([1]; safener 4.4 g/ha alone) was 0, the “LAMPU Ob (Observed values)” value ([1]; safener 8.8 g/ha alone) was 0 and the “LAMPU Ob (Observed values)” value ([1]; safener 17.5 g/ha alone) was 0. For the same molecule, the “LAMPU Ob (Observed values)” value ([1]; safener 35 g/ha alone) was 0, the “PAPRH Ob (Observed values)” value ([2]; safener 4.4 g/ha alone) was 0 and the “PAPRH Ob (Observed values)” value ([2]; safener 8.8 g/ha alone) was 0. For the same molecule, the “PAPRH Ob (Observed values)” value ([2]; safener 17.5 g/ha alone) was 0 and the “PAPRH Ob (Observed values)” value ([2]; safener 35 g/ha alone) was 0.
For `O=C(O)c1nc(C(Cl)(Cl)Cl)n(-c2ccc(Cl)cc2Cl)n1` [Fenchlorazole], the “LAMPU Ob (Observed values)” value ([1]; safener 4.4 g/ha alone) was 0, the “LAMPU Ob (Observed values)” value ([1]; safener 8.8 g/ha alone) was 0 and the “LAMPU Ob (Observed values)” value ([1]; safener 17.5 g/ha alone) was 0. For the same molecule, the “LAMPU Ob (Observed values)” value ([1]; safener 35 g/ha alone) was 0, the “PAPRH Ob (Observed values)” value ([2]; safener 4.4 g/ha alone) was 0 and the “PAPRH Ob (Observed values)” value ([2]; safener 8.8 g/ha alone) was 0. For the same molecule, the “PAPRH Ob (Observed values)” value ([2]; safener 17.5 g/ha alone) was 0 and the “PAPRH Ob (Observed values)” value ([2]; safener 35 g/ha alone) was 0.
For `FC(F)(F)C(=NOCC1OCCO1)c1ccc(Cl)cc1` [Fluxofenim], the “VERPE Ob” value ([3]; 17.5 g/ha) was 0, the “VERPE Ob” value ([3]; 35 g/ha) was 0 and the “VERPE Ob” value ([3]; 70 g/ha) was 0. The “VERPE Ob” value ([3]; 140 g/ha) was 0, the “STEME Ob” value ([4]; 17.5 g/ha) was 0 and the “STEME Ob” value ([4]; 35 g/ha) was 0. For the same molecule, the “STEME Ob” value ([4]; 70 g/ha) was 0, the “STEME Ob” value ([4]; 140 g/ha) was 0 and the “VIOTR Ob” value ([5]; 17.5 g/ha) was 0. The “VIOTR Ob” value ([5]; 35 g/ha) was 0, the “VIOTR Ob” value ([5]; 70 g/ha) was 0 and the “VIOTR Ob” value ([5]; 140 g/ha) was 0. For the same molecule, the “GALAP Ob” value ([6]; 17.5 g/ha) was 0, the “GALAP Ob” value ([6]; 35 g/ha) was 0 and the “GALAP Ob” value ([6]; 70 g/ha) was 0. The “GALAP Ob” value ([6]; 140 g/ha) was 0, the “POLCO Ob” value ([7]; 17.5 g/ha) was 0 and the “POLCO Ob” value ([7]; 35 g/ha) was 0. For the same molecule, the “POLCO Ob” value ([7]; 70 g/ha) was 0, the “POLCO Ob” value ([7]; 140 g/ha) was 0 and the HORVS Ob ([8]; 17.5 g/ha) was 0%. The HORVS Ob ([8]; 35 g/ha) was 0%, the HORVS Ob ([8]; 70 g/ha) was 0% and the HORVS Ob ([8]; 140 g/ha) was 0%. For the same molecule, the “PAPRH Ob” value ([2]; 17.5 g/ha) was 0, the “PAPRH Ob” value ([2]; 35 g/ha) was 0 and the “PAPRH Ob” value ([2]; 70 g/ha) was 0. For the same molecule, the “PAPRH Ob” value ([2]; 140 g/ha) was 0, the TRZAS Ob ([9]; 17.5 g/ha) was 0% and the TRZAS Ob ([9]; 35 g/ha) was 0%. The TRZAS Ob ([9]; 70 g/ha) was 0%, the TRZAS Ob ([9]; 140 g/ha) was 0% and the “SASKR Ob” value ([10]; 17.5 g/ha) was 0. For the same molecule, the “SASKR Ob” value ([10]; 35 g/ha) was 0, the “SASKR Ob” value ([10]; 70 g/ha) was 0 and the “SASKR Ob” value ([10]; 140 g/ha) was 0.
In the case of `O=C1OC(=O)c2cccc3cccc1c23` [Naphthalic anhydride], the “VERPE Ob” value ([3]; 17.5 g/ha) is reported as 0, the “VERPE Ob” value ([3]; 35 g/ha) is reported as 0 and the “VERPE Ob” value ([3]; 70 g/ha) is reported as 0. The “VERPE Ob” value ([3]; 140 g/ha) was 0, the “STEME Ob” value ([4]; 17.5 g/ha) was 0 and the “STEME Ob” value ([4]; 35 g/ha) was 0. The “STEME Ob” value ([4]; 70 g/ha) was 0, the “STEME Ob” value ([4]; 140 g/ha) was 0 and the “VIOTR Ob” value ([5]; 17.5 g/ha) was 0. For the same molecule, the “VIOTR Ob” value ([5]; 35 g/ha) was 0, the “VIOTR Ob” value ([5]; 70 g/ha) was 0 and the “VIOTR Ob” value ([5]; 140 g/ha) was 0. For the same molecule, the “GALAP Ob” value ([6]; 17.5 g/ha) was 0, the “GALAP Ob” value ([6]; 35 g/ha) was 0 and the “GALAP Ob” value ([6]; 70 g/ha) was 0. The “GALAP Ob” value ([6]; 140 g/ha) was 0, the “POLCO Ob” value ([7]; 17.5 g/ha) was 0 and the “POLCO Ob” value ([7]; 35 g/ha) was 0. For the same molecule, the “POLCO Ob” value ([7]; 70 g/ha) was 0, the “POLCO Ob” value ([7]; 140 g/ha) was 0 and the “PAPRH Ob” value ([2]; 17.5 g/ha) was 0. For the same molecule, the “PAPRH Ob” value ([2]; 35 g/ha) was 0, the “PAPRH Ob” value ([2]; 70 g/ha) was 0 and the “PAPRH Ob” value ([2]; 140 g/ha) was 0. For the same molecule, the “SASKR Ob” value ([10]; 17.5 g/ha) was 0, the “SASKR Ob” value ([10]; 35 g/ha) was 0 and the “SASKR Ob” value ([10]; 70 g/ha) was 0. For the same molecule, the “SASKR Ob” value ([10]; 140 g/ha) was 0.
